Experimental data: US12090252B2, “Method for producing retinal tissues” (RIKEN, priority 2017, dated 2024)

What was measured:
Type in all cases: cell-based
[1] = system: cell aggregates containing a retinal tissue produced from human ES cells; assay: CRX-positive and TRβ2-positive cells in retinal tissue, about day 70 of suspension culture (immunostaining, Image J); conditions: for CRX-positive and TRβ2-positive cells (cone photoreceptor precursor) / CRX-positive cells (photoreceptor precursor) contained in retinal tissue: about day 70 (day 71-75) from start of suspension culture, T3 60 nM from day 38, BMP4 0.15 nM or Cyclopamine-KAAD 500 nM from day 22
Procedure: (§1) A cell aggregate containing a retinal tissue in an initial developmental stage was prepared by the method described in “Kuwahara et al. Nat Commun 2015, 19(6), 6286-” after modification in part. That is, the aforementioned cultured ES cells were individually dispersed using TRYPLE™ Express cell dispersion solution (Invitrogen), and the individually dispersed human ES cells were suspended in 100 μL of a serum-free medium in a cell non-adhesive 96 well culture plate (SUMILON spheroid plate, SUMITOMO BAKELITE CO., LTD.) at 9×10^3 cells per well to allow rapid formation of aggregates, after which they were cultured at 37° C., 5% CO2. As the serum-free medium therefor, a serum-free medium obtained by adding 10% KSR, 450 μM 1-monothioglycerol, 1× Chemically defined lipid concentrate, 5 mg/mL BSA, 20 μM Y27632 to a 1:1 mixture of F-12 medium and IMDM medium was used. At 6 days after the start of suspension culture, BMP4 at a final concentration of 1.5 nM was added and suspension culture was continued. A half amount of the culture medium in the well was exchanged with the above-mentioned medium not supplemented with a BMP signal transduction pathway agonist every 3 or 4 days. A cell aggregate containing a retinal tissue at day 18 from the start of suspension culture was cultured in suspension in a serum-free medium (DMEM/F12 medium supplemented with 1% N2 supplement) containing 3 μM CHIR99021 and 5 μM SU5402 for 4 days, namely, up to day 22 from the start of suspension culture. Thereafter, suspension culture of the cell aggregate containing the retinal tissue was continued until it was appropriately used for analysis and the like. As the culture medium during this period, serum-containing media shown in the following to [3] were used and the cell aggregate was cultured under 5% CO2 conditions. • [1] day 22 to day 38 from the start of suspension culture; DMEM/F12 medium supplemented with 10% fetal calf serum, 1% N2 supplement, and 100 μM taurine (hereinafter to be referred to as medium A). • [2] day 38 to day 60 from the start of suspension culture; a 1:3 mixed medium of medium A, and Neurobasal medium supplemented with 10% fetal calf serum, 2% B27 supplement, […], and 100 μM taurine (hereinafter to be referred to as medium B). • [3] after day 60 or later from the start of suspension culture: medium B.
The cell aggregates containing a retinal tissue shown in Example 4 were prepared by respectively adding T3 or dorsalization signal transmitter (BMP4) as follows in the method described in Example 1. • [1]-T3 group (FIG. 4a, FIG. 4e, FIG. 4i); using the culture medium described in Example 1, culture was performed without addition up to day 75 from the start of suspension culture. • [2] +T3 group (FIG. 4b, FIG. 4f, FIG. 4j); using the culture medium described in Example 1, 60 nM T3 was further added from day 38 from the start of suspension culture to the completion of suspension culture, and cultured up to day 71 from the start of suspension culture. • [3] +T3+BMP group (FIG. 4c, FIG. 4g, FIG. 4k); using the culture medium described in Example 1, 0.15 nM BMP4 and 60 nM T3 were further added respectively from day 22, day 38 from the start of suspension culture to the completion of suspension culture, and cultured up to day 71 from the start of suspension culture. • [4] +T3+Cyclopamine-KAAD group (FIG. 4d, FIG. 4h, FIG. 4l); using the culture medium described in Example 1, 500 nM Cyclopamine-KAAD and 60 nM T3 were further added respectively from day 22, day 38 from the start of suspension culture to the completion of suspension culture, and cultured up to day 71 from the start of suspension culture.
After fixing cell aggregates containing retinal tissue cultured under the above conditions with 4% para-formaldehyde, cryosections were prepared and subjected to immunostaining using CRX, TRβ2(TRb2) antibody, or DAPI staining for staining the cell nucleus.

[2] = system: cell aggregates containing a retinal tissue produced from human ES cells; assay: CRX:Venus, RXR-γ and NRL cell proportions in retinal tissue, about day 190 of suspension culture (immunostaining, Image J); conditions: for CRX-positive cells (CRX:Venus-positive, photoreceptor precursor) / NRL-positive cells among CRX-positive cells (rod photoreceptor precursor) / RXR-γ-positive and NRL-negative cell among CRX-positive cells (cone photoreceptor precursor): about day 190 (day 188-193), T3 60 nM day 38-130, BMP4 0.15 nM or Cyclopamine-KAAD 500 nM day 22-100
Procedure: as §1
The cell aggregates containing a retinal tissue shown in Example 6 were prepared by respectively adding T3 or dorsalization signal transmitter (BMP4 or Cyclopamine-KAAD) as follows in the method described in Example 1. • [1]-T3 group (FIG. 6a, FIG. 6e, FIG. 6i, FIG. 6m); using the culture medium described in Example 1, culture was performed without addition up to day 191 from the start of suspension culture. • [2] +T3 group (FIG. 6b, FIG. 6f, FIG. 6j, FIG. 6n); using the culture medium described in Example 1, 60 nM T3 was further added from day 38 to day 130 from the start of suspension culture, and thereafter cultured up to day 192 from the start of suspension culture. From day 130 to day 192, medium described in Example 1 was used. • [3] +T3+BMP group (FIG. 6c, FIG. 6g, FIG. 6k, FIG. 6o); using the culture medium described in Example 1, 0.15 nM BMP4 was further added from day 22 to day 100 from the start of suspension culture, 60 nM T3 was added from day 38 to day 130 from the start of suspension culture, and thereafter cultured up to day 188 from the start of suspension culture. From day 130 to day 188, medium described in Example 1 was used. • [4] +T3+Cyclopamine-KAAD group (FIG. 6d, FIG. 6h, FIG. 6l, FIG. 6p); using the culture medium described in Example 1, 500 nM Cyclopamine-KAAD was further added from day 22 to day 100 from the start of suspension culture, 60 nM T3 was added from day 38 to day 130 from the start of suspension culture, and thereafter cultured up to day 193 from the start of suspension culture. From day 130 to day 193, medium described in Example 1 was used.

[3] = system: cell aggregates containing a retinal tissue produced from human ES cells; assay: PAX6/CHX10 cell proportions in retinal tissue, about day 190 of suspension culture (immunostaining, Image J); conditions: for PAX6-negative/CHX10-strongly positive cells (bipolar cells) / PAX6-strongly positive/CHX10-negative cells (any of ganglion cell, amacrine cell, horizontal cell): about day 190 (day 188-191), T3 60 nM day 38-130, BMP4 0.15 nM or Cyclopamine-KAAD 500 nM day 22-100; for PAX6-strongly positive/CHX10-negative cell and PAX6-negative/CHX10-strongly positive cell, observation with fluorescent microscope: day 188-191, groups added with T3 compared to groups with no addition
Procedure: as §1
The cell aggregates containing a retinal tissue shown in Example 5 were prepared by respectively adding T3 or dorsalization signal transmitter as follows in the method described in Example 1. • [1]-T3 group (FIG. 5a, FIG. 5g, FIG. 5m); using the culture medium described in Example 1, culture was performed without addition up to day 191 from the start of suspension culture. • [2] +T3 group (FIG. 5b, FIG. 5h, FIG. 5n); using the culture medium described in Example 1, 60 nM T3 was further added from day 38 to day 130 from the start of suspension culture, and thereafter cultured up to day 188 from the start of suspension culture. From day 130 to day 188, medium B described in Example 1 was used. • [3] +BMP group (FIG. 5c, FIG. 5i, FIG. 5o); using the culture medium described in Example 1, 0.15 nM BMP4 was further added from day 22 to day 100 from the start of suspension culture, and thereafter cultured up to day 191 from the start of suspension culture. From day 100 to day 191, medium described in Example 1 was used. • [4] +T3+BMP group (FIG. 5d, FIG. 5j, FIG. 5p); using the culture medium described in Example 1, 0.15 nM BMP4 was further added from day 22 to day 100 from the start of suspension culture, 60 nM T3 was added from day 38 to day 130 from the start of suspension culture, and thereafter cultured up to day 188 from the start of suspension culture.

[4] = system: cell aggregates containing a retinal tissue produced from human ES cells; assay: CRX-positive cells in neural retinal tissue, day 100-105 of suspension culture (immunostaining, Image J)
Procedure: A cell aggregate containing a retinal tissue in an initial developmental stage was prepared by the method described in “Kuwahara et al. Nat Commun 2015, 19(6), 6286-” after modification in part. That is, the aforementioned cultured ES cells were individually dispersed using TRYPLE™ Express cell dispersion solution (Invitrogen), and the individually dispersed human ES cells were suspended in 100 μL of a serum-free medium in a cell non-adhesive 96 well culture plate (SUMILON spheroid plate, SUMITOMO BAKELITE CO., LTD.) at 9×10^3 cells per well to allow rapid formation of aggregates, after which they were cultured at 37° C., 5% CO2. As the serum-free medium therefor, a serum-free medium obtained by adding 10% KSR, 450 μM 1-monothioglycerol, 1× Chemically defined lipid concentrate, 5 mg/mL BSA, 20 μM Y27632 to a 1:1 mixture of F-12 medium and IMDM medium was used. At 6 days after the start of suspension culture, BMP4 at a final concentration of 1.5 nM was added and suspension culture was continued. A half amount of the culture medium in the well was exchanged with the above-mentioned medium not supplemented with a BMP signal transduction pathway agonist every 3 or 4 days. A cell aggregate containing a retinal tissue at day 18 from the start of suspension culture was cultured in suspension in a serum-free medium (DMEM/F12 medium supplemented with 1% N2 supplement) containing 3 μM CHIR99021 and 5 μM SU5402 for 4 days, namely, up to day 22 from the start of suspension culture. Thereafter, suspension culture of the cell aggregate containing the retinal tissue was continued until it was appropriately used for analysis and the like. […]

[5] = system: cell aggregates containing a retinal tissue produced from human ES cells; assay: CRX:Venus green fluorescence of cell aggregates under a fluorescent microscope, day 69-74; conditions: T3 vs −T3 group
Procedure: A cell aggregate containing a retinal tissue in an initial developmental stage was prepared by the method described in “Kuwahara et al. Nat Commun 2015, 19(6), 6286-” after modification in part. That is, the aforementioned cultured ES cells were individually dispersed using TRYPLE™ Express cell dispersion solution (Invitrogen), and the individually dispersed human ES cells were suspended in 100 μL of a serum-free medium in a cell non-adhesive 96 well culture plate (SUMILON spheroid plate, SUMITOMO BAKELITE CO., LTD.) at 9×10^3 cells per well to allow rapid formation of aggregates, after which they were cultured at 37° C., 5% CO2. As the serum-free medium therefor, a serum-free medium obtained by adding 10% KSR, 450 μM 1-monothioglycerol, 1× Chemically defined lipid concentrate, 5 mg/mL BSA, 20 μM Y27632 to a 1:1 mixture of F-12 medium and IMDM medium was used. At 6 days after the start of suspension culture, BMP4 at a final concentration of 1.5 nM was added and suspension culture was continued. A half amount of the culture medium in the well was exchanged with the above-mentioned medium not supplemented with a BMP signal transduction pathway agonist every 3 or 4 days. […]

[6] = day 71-75, T3 vs −T3 group, combinations vs +T3 group
[7] = day 188-193, compared to −T3 group

Compound | CRX-positive and TRβ2-positive cells (cone photoreceptor precursor) [1] [%] | CRX-positive cells (photoreceptor precursor) contained in retinal tissue [1] [%] | CRX-positive cells (CRX:Venus-positive, photoreceptor precursor) [2] [%] | NRL-positive cells among CRX-positive cells (rod photoreceptor precursor) [2] [%] | RXR-γ-positive and NRL-negative cell among CRX-positive cells (cone photoreceptor precursor) [2] [%] | PAX6-negative/CHX10-strongly positive cells (bipolar cells) [3] [%] | PAX6-strongly positive/CHX10-negative cells (any of ganglion cell, amacrine cell, horizontal cell) [3] [%] | PAX6-strongly positive/CHX10-negative cell and PAX6-negative/CHX10-strongly positive cell, observation with fluorescent microscope [3] | proportion of CRX-positive cells contained in the neural retinal tissue ([4]; T3 60 nM from day 38, BMP4 0.15 nM or Cyclopamine-KAAD 500 nM day 22-100) [%] | CRX-positive cell (photoreceptor precursor), observation ([4]; compared to −T3 group) | ectopic photoreceptor precursors in neuroblastic layer and ganglion cell layer ([4]; observation) | CRX-positive cell (photoreceptor precursor), observation with fluorescence microscope [1, 6] | cone photoreceptor precursors (CRX-positive cell that expresses TRβ2), observation [1, 6] | ectopic CRX-positive cell in region on the basement membrane side from neuroblastic layer ([1]; day 71-75, observation with fluorescence microscope) | green fluorescence shown by knocked-in CRX:Venus ([5]; day 69-74, T3 60 nM from day 38, BMP4 0.15 nM or Cyclopamine-KAAD 500 nM from day 22, combinations vs +T3 group) | green fluorescence shown by knocked-in CRX:Venus, in the presence of 9-cis retinoic acid ([5]; day 74, 100 nM 9-cis retinoic acid and 60 nM T3 from day 38, BMP4 0.45 nM from day 22, combination vs +T3 group) | RXR-γ-positive and NRL-negative cone photoreceptor precursor among CRX:Venus-positive photoreceptor precursors, observation [2, 7] | proportion of photoreceptor precursor among the cells contained in the retinal tissue, observation [2, 7]
CC1=C2C[C@H]3[C@@H](CC=C4CC(=O)CC[C@@]43C)[C@@H]2CC[C@]12O[C@@H]1C[C@H](C)CN(CCNC(=O)CCCCCNC(=O)CCc3ccccc3)[C@H]1[C@H]2C [Cyclopamine-KAAD] | 8.1 | 14.1 | 41.7 | 11.5 | 30.2 | 8.65 | 24.50 | many | – | – | – | – | – | – | – | – | – | –
N[C@@H](Cc1cc(I)c(Oc2ccc(O)c(I)c2)c(I)c1)C(=O)O [T3, triiodothyronine] | 11.3 | 22.8 | 53.4 | 9.4 | 44.1 | 4.29 | 13.83 | markedly decreased | 30.0 | remarkably increased | ectopic photoreceptor precursors are contained | found more | found in a greater number | found at the same level as in the apical surface | observed more | observed more | increased | markedly high
BMP4: BMP protein, BMP signal transduction pathway agonist used as dorsalization signal transmitter | 10.8 | 17.0 | 37.7 | 6.1 | 31.3 | 15.49 | 24.60 | many | – | – | – | – | – | – | – | – | – | –
